# From patent publication US20190136292A1, “Universal Calibration Method for Assaying Enzymatic Inhibitors” (Diagnostica Stago, priority 2016, published 2019)
# Values joined by “and” are separate entries in the source; they are usually repeats but may differ in a detail not shown here. Identical values can stand only once. Like-named read-outs stand apart in the source and are kept apart here.
# Target: F.Xa (factor Xa of bovine origin) (Bos taurus, UniProt P00743)
# Details: for conversion chart constant e (equation 2, anti-Xa activity % to ng/ml) / conversion chart constant i (equation 2, anti-Xa activity % to ng/ml): non-linear regression of equation 2
# From the text: The reagents from the commercial kit STA®—Liquid Anti-Xa (Diagnostica Stago, Asniéres sur Seine, France), F.Xa (factor Xa of bovine origin) and substrate (MAPA-Gly-Arg-pNA) were used. These commercial reagents and also the pool of normal human plasma Pool Norm (Diagnostica Stago, Asnieres sur Seine, France), the Owren Koller buffer (OKB) (pH 7.35, STA®—Owren-Koller, Diagnostica Stago, Asnieres sur Seine, France) and the desorption solution (DU) STA®—Desorb U (Diagnostica Stago, Asnieres sur Seine, France) were regenerated at room temperature for 30 minutes, as recommended by the manufacturer.
# The kinetics were monitored by colorimetry at 405 nm, detecting the release of para-nitroanilide (pNA). The optical density (OD) was measured every two seconds. Two methodologies were optimized for assaying the three direct oral anti-Xa anticoagulants: the broad-range methodology and the narrow-range methodology. This is because the broad-range methodology makes it possible to assay the anticoagulants over the whole of the desired range; however, since the measurement of low concentrations of these anticoagulants requires great precision a narrow-range methodology was therefore developed.
# In broad range, 6.25 μl of biological sample (plasma) were diluted with OKB in a final volume of 50 μl. The microcuvette was incubated for 240 seconds at 37° C. in the presence of 150 μl of substrate. The reaction was started by the addition of 150 μl of F.Xa, incubated beforehand at 37° C. In narrow range, 25 μl of sample were diluted with 25 μl of OKB. The experimental conditions for addition of substrate and enzyme are the same as for the broad-range methodology. The gradients were determined between 50 and 80 seconds.
# The calibration was carried out from a range of F.Xa composed of 10 points ranging from 10% to 100% F.Xa, corresponding to an anti-Xa activity ranging from 90% to 0%. The range was created from reagents from the kit STA® Liquid Anti-Xa. The F.Xa (2 ml, 1.8 ml, . . . , 0.2 ml) was diluted in OKB (0 ml, 0.2 ml . . . 1.8 ml) for a final volume of 2 ml. The pool of healthy plasmas dated 04/2014 was used for this experiment. 5% DMSO was diluted to 1/20th in the plasma. The results (measurements of the OD/min between 50 and 80 seconds) were determined in two replicates.
# The gradients of the kinetics measured for the 10 calibration points make it possible to plot the graph of anti-Xa activity (%) as a function of the OD/min. The equation of the line obtained is used to convert the OD/min of the samples tested into anti-Xa activity as percentage. The equation of the line is given by a polynomial regression of first order or of second order.
# The parameters of the chart, specific to each direct oral anticoagulant (DOA), were determined for both of the methodologies (broad-range methodology and narrow-range methodology) by a non-linear regression of equation 2 on a few experimental points. […] The OD/min was measured for each sample between 50 and 80 seconds.
# The limit of blank (LoB) was determined according to a standard procedure. The five different plasmas used were those dated January 2011, March 2012, April 2014, November 2014 and February 2015. Four replicates were carried out each day for three days, on the same automated device. The tests were carried out for the broad-range and narrow-range methodologies.
# The limit of detection (LoD) was determined according to a standard procedure. Low-analyte plasmas were prepared. The overloads were carried out to 1/20th. The plasma dated 04/2014 was used. […] In narrow range, the concentrations of the overloads were 5 ng/ml for the three anticoagulants. Five overloads were produced for a final volume of 900 μl. When the regression of the universal calibration was a second-order polynomial, the concentrations of analytes in broad range and in narrow range were 2 ng/ml for the three direct oral anticoagulants (DOAs). The final volume of the overloads was 1000 μl. Each overload was separated into three tubes.
# [1] = broad-range methodology, plasma sample diluted 1/8 in OKB, linear universal calibration
# [2] = narrow-range methodology, plasma sample diluted 1/2 in OKB, linear universal calibration
# [3] = optimization in narrow-range methodology, universal calibration regressed by second-order polynomial
# F.Xa (factor Xa of bovine origin), sequence (P00743 234-492 limits assumed): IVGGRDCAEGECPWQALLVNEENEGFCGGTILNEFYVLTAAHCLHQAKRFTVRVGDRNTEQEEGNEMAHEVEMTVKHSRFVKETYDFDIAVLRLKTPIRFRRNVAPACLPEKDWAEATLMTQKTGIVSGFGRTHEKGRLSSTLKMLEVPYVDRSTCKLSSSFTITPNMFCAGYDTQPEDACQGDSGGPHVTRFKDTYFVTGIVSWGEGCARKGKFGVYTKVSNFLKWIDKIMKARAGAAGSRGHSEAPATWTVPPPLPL
# F.Xa (factor Xa of bovine origin), sequence (P00743 41-180 partner limits assumed): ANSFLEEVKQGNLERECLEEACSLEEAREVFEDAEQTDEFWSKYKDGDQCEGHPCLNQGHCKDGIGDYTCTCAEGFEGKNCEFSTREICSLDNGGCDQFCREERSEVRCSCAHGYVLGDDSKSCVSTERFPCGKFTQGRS
compound,measurement,setting,value
COc1ccc(-n2nc(C(N)=O)c3c2C(=O)N(c2ccc(N4CCCCC4=O)cc2)CC3)cc1 [apixaban],"conversion chart constant e (equation 2, anti-Xa activity % to ng/ml)",broad-range methodology,14.66
same,"conversion chart constant i (equation 2, anti-Xa activity % to ng/ml)",broad-range methodology,1.35
same,LoB (limit of blank),[1],16.613 ng/mL
same,LoD (limit of detection),[1],21.8 ng/mL and 21.723 ng/mL
same,"conversion chart constant e (equation 2, anti-Xa activity % to ng/ml)",narrow-range methodology,13.23
same,"conversion chart constant i (equation 2, anti-Xa activity % to ng/ml)",narrow-range methodology,2.91
same,LoB (limit of blank),[2],5.450 ng/mL
same,LoD (limit of detection),[2],6.9 ng/mL and 6.882 ng/mL
same,LoB (limit of blank),[3],2.759 ng/mL
same,LoD (limit of detection),[3],4.001 ng/mL
